Data reported in ChEMBL document CHEMBL5537185, “Discovery of the First-in-Class RORγ Covalent Inhibitors for Treatment of Castration-Resistant Prostate Cancer” (J Med Chem, 2024).

Biological target: T1, Nuclear receptor ROR-gamma (Homo sapiens, UniProt P51449)
T1 sequence (P51449 whole entry): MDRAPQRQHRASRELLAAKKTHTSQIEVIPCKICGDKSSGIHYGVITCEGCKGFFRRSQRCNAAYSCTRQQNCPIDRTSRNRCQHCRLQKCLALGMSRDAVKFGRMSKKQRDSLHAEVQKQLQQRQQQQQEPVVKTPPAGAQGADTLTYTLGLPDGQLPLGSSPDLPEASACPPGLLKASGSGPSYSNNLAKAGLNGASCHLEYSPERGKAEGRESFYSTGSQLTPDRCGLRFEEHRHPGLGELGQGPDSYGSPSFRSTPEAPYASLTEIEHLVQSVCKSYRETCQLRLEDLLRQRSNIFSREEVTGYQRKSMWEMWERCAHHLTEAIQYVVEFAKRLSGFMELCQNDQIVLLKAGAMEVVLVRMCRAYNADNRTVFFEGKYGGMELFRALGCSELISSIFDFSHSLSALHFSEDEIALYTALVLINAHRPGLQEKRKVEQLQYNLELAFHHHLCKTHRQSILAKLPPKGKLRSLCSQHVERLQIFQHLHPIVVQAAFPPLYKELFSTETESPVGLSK
Test: Inhibition of Gal4-fused RORgamma LBD (unknown origin) expressed in HEK293T cells incubated for 48 hrs by luciferase based assay
Assay type: cell-based

SMILES | IC50
C=CC(=O)Nc1ccccc1-c1ccc(NC(=O)c2cccc(C#N)c2)cc1C | > 20000 nM
CCS(=O)(=O)c1ccc(CC(=O)Nc2ccc(-c3ccccc3NC(=O)CCl)c(C)c2)cc1 | 2000 nM
C=CC(=O)Nc1ccccc1-c1ccc(NC(=O)c2ccc(OC)nc2)cc1C | 4640 nM
C=CC(=O)Nc1ccccc1-c1ccc(NC(=O)c2cnc(C)nc2)cc1C | 2580 nM
C=CC(=O)Nc1ccccc1-c1ccc(NC(=O)Cc2ccc(S(=O)(=O)CC)cc2)cc1 | 4080 nM
C=C(C)C(=O)Nc1ccccc1-c1ccc(NC(=O)Cc2ccc(S(=O)(=O)CC)cc2)cc1C | 1120 nM
